Where a name gives a salt, the structure may show the parent alone.
Experiments:
Conditions in all cases: exposure time: 72 h
E34 [1] = patient-derived glioblastoma stem cells of proneural subtype; assay: phenotypic distance (Euclidean, principal components) from DMSO controls (arbitrary units); higher = stronger morphological change
E31 [2] = patient-derived glioblastoma stem cells of proneural subtype; assay: as above
E28 [3] = patient-derived glioblastoma stem cells of classical subtype; assay: as above
E57 [4] = patient-derived glioblastoma stem cells of mesenchymal subtype; assay: as above
E21 [5] = patient-derived glioblastoma stem cells of mesenchymal subtype; assay: as above
E13 [6] = patient-derived glioblastoma stem cells of classical subtype; assay: as above
FT3469 [7] = normal neural stem cell line; assay: as above
E34 [8] = assay: surviving fraction (nuclei count normalised to DMSO); higher = more cells surviving (less toxic)
E31 [9] = assay: as above
E28 [10] = assay: as above
E57 [11] = assay: as above
E21 [12] = assay: as above
E13 [13] = assay: as above
FT3469 [14] = assay: as above
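For phenotypic distance (Euclidean, principal components) from DMSO controls in this document: cell Painting imaging in 384-well plates, CellProfiler features reduced to at least 20 principal components, Euclidean distance versus same-plate DMSO vehicle wells (0.1% v/v), median over six images per well.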
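For surviving fraction (nuclei count normalised to DMSO) in this document: nuclei counted by high-content imaging of Hoechst-stained cells in laminin-coated 384-well plates, relative to 0.1% DMSO vehicle wells, with staurosporine as cell-death control.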

Cc1c2ccncc2c(C)c2c1[nH]c1ccccc12 [Ellipticine]
Conditions | phenotypic distance | surviving fraction
E13 [6], 4.1 nM | 0.815 | –
E13 [6], 12.3 nM | 0.556 | –
E13 [6], 37 nM | 0.741 | –
E13 [6], 111.1 nM | 0.932 | –
E13 [6], 333.3 nM | 1.52 | –
E13 [6], 1000 nM | 2.23 | –
E13 [6], 3000 nM | 4.47 | –
E13 [13], 4.1 nM | – | 1.06
E13 [13], 12.3 nM | – | 0.896
E13 [13], 37 nM | – | 0.936
E13 [13], 111.1 nM | – | 0.958
E13 [13], 333.3 nM | – | 0.912
E13 [13], 1000 nM | – | 0.784
E13 [13], 3000 nM | – | 0.473
E21 [5], 4.1 nM | 1.16 | –
E21 [5], 12.3 nM | 1.17 | –
E21 [5], 37 nM | 1.79 | –
E21 [5], 111.1 nM | 2.04 | –
E21 [5], 333.3 nM | 2.29 | –
E21 [5], 1000 nM | 2.28 | –
E21 [5], 3000 nM | 2.98 | –
E21 [12], 4.1 nM | – | 0.991
E21 [12], 12.3 nM | – | 1.07
E21 [12], 37 nM | – | 0.888
E21 [12], 111.1 nM | – | 0.831
E21 [12], 333.3 nM | – | 0.754
E21 [12], 1000 nM | – | 0.72
E21 [12], 3000 nM | – | 0.499
E28 [3], 4.1 nM | 0.578 | –
E28 [3], 12.3 nM | 0.641 | –
E28 [3], 37 nM | 0.588 | –
E28 [3], 111.1 nM | 0.478 | –
E28 [3], 333.3 nM | 0.804 | –
E28 [3], 1000 nM | 1.01 | –
E28 [3], 3000 nM | 2.73 | –
E28 [10], 4.1 nM | – | 1.11
E28 [10], 12.3 nM | – | 1.11
E28 [10], 37 nM | – | 1.08
E28 [10], 111.1 nM | – | 1.05
E28 [10], 333.3 nM | – | 0.967
E28 [10], 1000 nM | – | 0.668
E28 [10], 3000 nM | – | 0.352
E31 [2], 4.1 nM | 0.486 | –
E31 [2], 12.3 nM | 0.52 | –
E31 [2], 37 nM | 0.379 | –
E31 [2], 111.1 nM | 0.662 | –
E31 [2], 333.3 nM | 0.789 | –
E31 [2], 1000 nM | 1.24 | –
E31 [2], 3000 nM | 2.27 | –
E31 [9], 4.1 nM | – | 1.02
E31 [9], 12.3 nM | – | 0.977
E31 [9], 37 nM | – | 1.07
E31 [9], 111.1 nM | – | 0.963
E31 [9], 333.3 nM | – | 0.768
E31 [9], 1000 nM | – | 0.648
E31 [9], 3000 nM | – | 0.395
E34 [1], 4.1 nM | 0.723 | –
E34 [1], 12.3 nM | 0.43 | –
E34 [1], 37 nM | 0.492 | –
E34 [1], 111.1 nM | 0.978 | –
E34 [1], 333.3 nM | 1.01 | –
E34 [1], 1000 nM | 1.43 | –
E34 [1], 3000 nM | 2.39 | –
E34 [8], 4.1 nM | – | 1.07
E34 [8], 12.3 nM | – | 0.94
E34 [8], 37 nM | – | 1.04
E34 [8], 111.1 nM | – | 0.952
E34 [8], 333.3 nM | – | 0.935
E34 [8], 1000 nM | – | 0.753
E34 [8], 3000 nM | – | 0.534
E57 [4], 4.1 nM | 1.05 | –
E57 [4], 12.3 nM | 0.752 | –
E57 [4], 37 nM | 1.12 | –
E57 [4], 111.1 nM | 1.64 | –
E57 [4], 333.3 nM | 1.87 | –
E57 [4], 1000 nM | 2.3 | –
E57 [4], 3000 nM | 4.58 | –
E57 [11], 4.1 nM | – | 0.88
E57 [11], 12.3 nM | – | 0.933
E57 [11], 37 nM | – | 0.926
E57 [11], 111.1 nM | – | 0.959
E57 [11], 333.3 nM | – | 0.867
E57 [11], 1000 nM | – | 0.784
E57 [11], 3000 nM | – | 0.409
FT3469 [7], 4.1 nM | 1.04 | –
FT3469 [7], 12.3 nM | 0.711 | –
FT3469 [7], 37 nM | 0.462 | –
FT3469 [7], 111.1 nM | 0.869 | –
FT3469 [7], 333.3 nM | 1.18 | –
FT3469 [7], 1000 nM | 1.47 | –
FT3469 [7], 3000 nM | 1.7 | –
FT3469 [14], 4.1 nM | – | 1.13
FT3469 [14], 12.3 nM | – | 1.11
FT3469 [14], 37 nM | – | 1.08
FT3469 [14], 111.1 nM | – | 1.11
FT3469 [14], 333.3 nM | – | 1.3
FT3469 [14], 1000 nM | – | 0.787
FT3469 [14], 3000 nM | – | 0.649

CC[C@H]1CN2CCc3cc(OC)c(OC)cc3[C@@H]2C[C@@H]1C[C@H]1NCCc2cc(OC)c(OC)cc21 [Emetine dihydrochloride hydrate]
Conditions | phenotypic distance | surviving fraction
E13 [6], 4.1 nM | 1.31 | –
E13 [6], 12.3 nM | 0.882 | –
E13 [6], 37 nM | 1.91 | –
E13 [6], 111.1 nM | 4.48 | –
E13 [6], 333.3 nM | 4.34 | –
E13 [6], 1000 nM | 5.43 | –
E13 [6], 3000 nM | 6.58 | –
E13 [13], 4.1 nM | – | 0.771
E13 [13], 12.3 nM | – | 0.923
E13 [13], 37 nM | – | 0.769
E13 [13], 111.1 nM | – | 0.481
E13 [13], 333.3 nM | – | 0.319
E13 [13], 1000 nM | – | 0.241
E13 [13], 3000 nM | – | 0.2
E21 [5], 4.1 nM | 1.08 | –
E21 [5], 12.3 nM | 0.979 | –
E21 [5], 37 nM | 0.851 | –
E21 [5], 111.1 nM | 6.33 | –
E21 [5], 333.3 nM | 4.77 | –
E21 [5], 1000 nM | 3.91 | –
E21 [5], 3000 nM | 3.66 | –
E21 [12], 4.1 nM | – | 0.907
E21 [12], 12.3 nM | – | 0.921
E21 [12], 37 nM | – | 0.816
E21 [12], 111.1 nM | – | 0.347
E21 [12], 333.3 nM | – | 0.223
E21 [12], 1000 nM | – | 0.153
E21 [12], 3000 nM | – | 0.173
E28 [3], 4.1 nM | 0.561 | –
E28 [3], 12.3 nM | 0.727 | –
E28 [3], 37 nM | 1.13 | –
E28 [3], 111.1 nM | 2.77 | –
E28 [3], 333.3 nM | 3.25 | –
E28 [3], 1000 nM | 3.1 | –
E28 [3], 3000 nM | 3.67 | –
E28 [10], 4.1 nM | – | 0.969
E28 [10], 12.3 nM | – | 1.05
E28 [10], 37 nM | – | 0.901
E28 [10], 111.1 nM | – | 0.385
E28 [10], 333.3 nM | – | 0.258
E28 [10], 1000 nM | – | 0.315
E28 [10], 3000 nM | – | 0.3
E31 [2], 4.1 nM | 1.22 | –
E31 [2], 12.3 nM | 1.2 | –
E31 [2], 37 nM | 2.2 | –
E31 [2], 111.1 nM | 5.26 | –
E31 [2], 333.3 nM | 5.72 | –
E31 [2], 1000 nM | 4.54 | –
E31 [2], 3000 nM | 5.99 | –
E31 [9], 4.1 nM | – | 0.927
E31 [9], 12.3 nM | – | 0.842
E31 [9], 37 nM | – | 0.667
E31 [9], 111.1 nM | – | 0.313
E31 [9], 333.3 nM | – | 0.143
E31 [9], 1000 nM | – | 0.179
E31 [9], 3000 nM | – | 0.101
E34 [1], 4.1 nM | 0.73 | –
E34 [1], 12.3 nM | 0.706 | –
E34 [1], 37 nM | 0.904 | –
E34 [1], 111.1 nM | 2.93 | –
E34 [1], 333.3 nM | 3.91 | –
E34 [1], 1000 nM | 4.94 | –
E34 [1], 3000 nM | 4.59 | –
E34 [8], 4.1 nM | – | 0.908
E34 [8], 12.3 nM | – | 0.885
E34 [8], 37 nM | – | 0.818
E34 [8], 111.1 nM | – | 0.497
E34 [8], 333.3 nM | – | 0.404
E34 [8], 1000 nM | – | 0.387
E34 [8], 3000 nM | – | 0.426
E57 [4], 4.1 nM | 1.02 | –
E57 [4], 12.3 nM | 1.01 | –
E57 [4], 37 nM | 0.848 | –
E57 [4], 111.1 nM | 5.15 | –
E57 [4], 333.3 nM | 6.55 | –
E57 [4], 1000 nM | 6.5 | –
E57 [4], 3000 nM | 6.32 | –
E57 [11], 4.1 nM | – | 0.975
E57 [11], 12.3 nM | – | 0.918
E57 [11], 37 nM | – | 0.84
E57 [11], 111.1 nM | – | 0.354
E57 [11], 333.3 nM | – | 0.157
E57 [11], 1000 nM | – | 0.173
E57 [11], 3000 nM | – | 0.14
FT3469 [7], 4.1 nM | 0.688 | –
FT3469 [7], 12.3 nM | 0.903 | –
FT3469 [7], 37 nM | 0.792 | –
FT3469 [7], 111.1 nM | 3.79 | –
FT3469 [7], 333.3 nM | 3.87 | –
FT3469 [7], 1000 nM | 3.19 | –
FT3469 [7], 3000 nM | 3.42 | –
FT3469 [14], 4.1 nM | – | 1.12
FT3469 [14], 12.3 nM | – | 1.05
FT3469 [14], 37 nM | – | 0.997
FT3469 [14], 111.1 nM | – | 0.676
FT3469 [14], 333.3 nM | – | 0.511
FT3469 [14], 1000 nM | – | 0.492
FT3469 [14], 3000 nM | – | 0.535

From the supplement of paper PMC13207355
